Assay results: article PMC9667936, “Functional mapping of the 14-3-3 hub protein as a guide to design 14-3-3 molecular glues” (Chemical Science, 2022)
Like-named read-outs stand apart in the source and are kept apart here. Where a SMILES comes first, the peptide text is derived from it. [ ]: non-standard residue; d: D form. ξ: configuration not given here. Phe(4-NO2) = N[C@@H](Cc1ccc([N+](=O)[O-])cc1)C(=O)O; ξAla(4-thiazolyl) = NC(Cc1cscn1)C(=O)O; pS = N[C@@H](COP(=O)(O)O)C(=O)O; β3hS = N[C@@H](CO)CC(=O)O; Nva = CCC[C@H](N)C(=O)O; ξβ3hS = NC(CO)CC(=O)O; βAla = NCCC(=O)O

Biological target: T1, 14-3-3γ (Homo sapiens, UniProt P61981)
T1 construct: made in house; host or cells: E. coli NiCo21 (DE3)
T1 sequence (P61981 1-247): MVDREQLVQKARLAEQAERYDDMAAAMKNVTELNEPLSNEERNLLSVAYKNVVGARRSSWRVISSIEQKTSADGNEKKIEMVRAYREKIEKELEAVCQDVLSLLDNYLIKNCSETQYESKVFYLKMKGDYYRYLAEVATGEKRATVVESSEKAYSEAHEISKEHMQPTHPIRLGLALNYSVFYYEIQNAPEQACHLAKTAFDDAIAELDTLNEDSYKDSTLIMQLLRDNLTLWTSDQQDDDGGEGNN
Assay: Isothermal titration calorimetry (ITC) of 14-3-3 binding to peptide
Conditions: for ΔG / Kd / ΔH / -TΔS / ΔH (ITC) / -TΔS (ITC) / ΔG (ITC) / KD (ITC): 25 °C; for Kd: Table S6 (unit as in Table S5)
Procedure: 14-3-3γ protein expression (FP/ITC experiments)
A pPROEX HTb expression vector encoding the human 14-3-3 protein gamma (14-3-3γ) with an N-terminal his6-tag was transformed by heat shock into NiCo21 (DE3) competent cells. Single colonies were cultured in 50 mL LB medium (100 µg/mL ampicillin). After overnight incubation at 37 °C, cultures were transferred to 2 L TB media (100 µg/mL ampicillin, 1 mM MgCl2) and incubated at 37 °C until an OD600 nm of 0.8-1.2 was reached. Protein expression was then induced with 0.4 mM isopropyl-β-d-thiogalactoside (IPTG), and cultures were incubated overnight at 18 °C. Cells were harvested by centrifugation (8600 rpm, 20 minutes, 4 °C) and resuspended in lysis buffer (50 mM Hepes, pH 8.0, 300 mM NaCl, 12.5 mM imidazole, 5 mM MgCl2, 2 mM βME) containing cOmplete™ EDTA-free Protease Inhibitor Cocktail tablets (1 tablet/100 ml lysate) and benzonase (1 µl/100 ml). After lysis using a C3 Emulsiflex-C3 homogenizer (Avestin), the cell lysate was cleared by centrifugation (20000 rpm, 30 minutes, 4 °C) and purified using Ni2+-affinity chromatography (Ni-NTA superflow cartridges, Qiagen).
Typically two 5 mL columns (flow 5 mL/min) were used for a 2 L culture in which the lysate was loaded on the column washed with 10 CV wash buffer (50 mM Hepes, pH 8.0, 300 mM NaCl, 25 mM imidazole, 2 mM βME) and eluted in several fractions (2-4 CV) of elution buffer (50 mM Hepes, pH 8.0, 300 mM NaCl, 250 mM imidazole, 2 mM βME). Fractions containing the 14-3-3 protein were combined and dialyzed into 25 mM HEPES pH 8.0, 100 mM NaCl, 10 mM MgCl2, 500 µM TCEP. […]
The peptides 1 and 2a-d were synthesized on 50 µmol scale on a Rink amide MBHA resin (Novabiochem, 0.52 mmol/g loading) using an automated Intavis MultiPep RSi peptide synthesizer.
Deprotection was performed twice per cycle with 20% v/v piperidine in DMF for 8 minutes. Fmoc-protected amino acids were mixed in 5 equivalents of HBTU and 9 equivalents of DIPEA in DMF, and coupled to the resin. With the exception of phosphoserine, which was coupled once for 60 minutes, all amino acids were coupled to the resin twice for 30 minutes. Capping of unreacted amino acids was performed with a mixture of acetic anhydride/pyridine/DMF (1:1:3) for 5 minutes. βAla was incorporated as a spacer between the sequence and Lys(Alloc), to which a FITC fluorophore will be coupled for fluorescence anisotropy studies.
The peptides 1 and 2e-i were synthesized manually on a 50 µmol scale using Rink amide MBHA resin (Novabiochem, 0.52 mmol/g loading) via Fmoc based solid phase peptide synthesis. […]
(lex: 485 ± 20 nm; lem: 535 ± 25 nm; mirror: Dichroic 510; flashes: 20; integration time: 50 ms; settle time:
0 ms; gain: optimal; and Z-position: calculated from well). […]
Data was obtained and averaged based on two
To determine the cooperativity parameters from the 2D-titration of 14-3-3/ChREBP/2d (as described above) we have used the general framework for straightforward model construction of multi-component thermodynamic equilibrium systems as described by Geertjens et al. (2021).10 This general platform generates a model to describe multi-component equilibrium systems when given a system description.
In our case we gave the following system description: […]
α (with 95% confidence interval) and the error-landscape of the determine parameters.
Fluorescence anisotropy (FA) – Selectivity study: Peptides representing 14-3-3 binding partners (including ChREBP) were titrated in a 2-fold dilution series (starting at 100 µM) to 20 nM of fluorescein-labeled peptide 2d in presence and absence of, respectively, 2 µM 14-3-3γ in FA buffer (10 mM HEPES pH 7.4, 150 mM NaCl, 0.1% (v/v) Tween20, 0.1% (w/v) BSA). Dilution series were made in a polystyrene (non-binding) low-volume Corning Black Round Bottom 384-well plates (Corning 4514 or 4511).
Measurements were performed directly after plate preparation, using a Tecan Infinite F500 plate reader at room temperature (lex: 485 ± 20 nm; lem: 535 ± 25 nm; mirror: Dichroic 510; flashes: 20; integration […]

[1] = Table S5, ΔG minus ΔG of peptide 1, ITC, first unlabelled line (replicate 1)
[2] = Table S5, ΔG minus ΔG of peptide 1, ITC, second unlabelled line (replicate 2)
[3] = Table S5, ΔG of peptide minus ΔG of peptide 1, ITC, mean of n = 2
[4] = ITC, average of two runs, read-out: Kd
[5] = Table S6 (unit given in Fig. 4 legend), ITC, average of two runs
[6] = Table S6, ITC, average of two runs

Row | SMILES | ΔG (Table S5, ITC, mean of n = 2) | ΔG (Table S5, ITC, replicate 1) | ΔG (Table S5, ITC, replicate 2) | ΔΔG to 1 [1] | ΔΔG to 1 [2] | ΔΔG to 1 [3] | Kd [4] | Kd (ITC, run 1) | Kd (ITC, run 2) | ΔH [5] | -TΔS [6] | ΔG [6] | -TΔS (Table S6, ITC, run 1) | ΔG (Table S6, ITC, run 1) | ΔH (Table S6, ITC, run 1) | -TΔS (Table S6, ITC, run 2) | ΔG (Table S6, ITC, run 2) | ΔH (Table S6, ITC, run 2) | further results
1 | CCC[C@H](NC(=O)[C@H](N)CCCCN)C(=O)N[C@@H](Cc1ccc([N+](=O)[O-])cc1)C(=O)NC(Cc1cscn1)C(=O)N[C@@H](COP(=O)(O)O)C(=O)N[C@@H](Cc1ccc([N+](=O)[O-])cc1)C(=O)N[C@@H](CO)CC(=O)NCCC(=O)N[C@@H](Cc1ccc(O)cc1)C(=O)N[C@@H](CCCCN)C(N)=O (stereo partly drawn) [5a] (H-[dK][Nva][Phe(4-NO2)][ξAla(4-thiazolyl)][pS][Phe(4-NO2)][β3hS][βAla]YK-NH2; N-terminus and C-terminus assumed) | -7.8 kcal/mol | -7.9 kcal/mol | -7.6 kcal/mol | 2.1 kcal/mol | 2.4 kcal/mol | 2.2 kcal/mol | 2060 nM | 1,55E-06 M | 2,57E-06 M | -5,21 kcal mol^-1 | -2,57 kcal mol^-1 | -7,78 kcal mol^-1 | -1,834 kcal mol^-1 | -7,925 kcal mol^-1 | -6,091 kcal mol^-1 | -3,299 kcal mol^-1 | -7,626 kcal mol^-1 | -4,328 kcal mol^-1 | 
2 | CCC[C@H](NC(=O)[C@H](N)CCCCN)C(=O)N[C@@H](Cc1ccc([N+](=O)[O-])cc1)C(=O)NC(Cc1cscn1)C(=O)N[C@@H](COP(=O)(O)O)C(=O)N[C@@H](Cc1ccc([N+](=O)[O-])cc1)C(=O)N[C@@H](CO)CC(=O)NCCC(=O)N[C@@H](Cc1ccccc1)C(=O)N[C@@H](CCCCN)C(N)=O (stereo partly drawn) [5b] (H-[dK][Nva][Phe(4-NO2)][ξAla(4-thiazolyl)][pS][Phe(4-NO2)][β3hS][βAla]FK-NH2; N-terminus and C-terminus assumed) | -7.9 kcal/mol | -7.9 kcal/mol | -7.8 kcal/mol | 2.1 kcal/mol | 2.2 kcal/mol | 2.1 kcal/mol | 1450 nM | 1,06E-06 M | 1,85E-06 M | -4,72 kcal mol^-1 | -3,16 kcal mol^-1 | -7,88 kcal mol^-1 | -3,227 kcal mol^-1 | -7,943 kcal mol^-1 | -4,716 kcal mol^-1 | -3,096 kcal mol^-1 | -7,821 kcal mol^-1 | -4,725 kcal mol^-1 | increase of enthalpy (ΔH) on removal of the nitro group, relative to peptide 1 (ITC, n = 2, Fig. 4c): ~6 kcal/mol
3 | CCC[C@H](NC(=O)[C@H](N)CCCCN)C(=O)N[C@@H](Cc1ccc([N+](=O)[O-])cc1)C(=O)NC(Cc1cscn1)C(=O)N[C@@H](COP(=O)(O)O)C(=O)N[C@@H](Cc1ccc([N+](=O)[O-])cc1)C(=O)N[C@@H](CO)CC(=O)NCCC(=O)N[C@@H](C)C(=O)N[C@@H](CCCCN)C(N)=O (stereo partly drawn) [5c] (H-[dK][Nva][Phe(4-NO2)][ξAla(4-thiazolyl)][pS][Phe(4-NO2)][β3hS][βAla]AK-NH2; N-terminus and C-terminus assumed) | -7.4 kcal/mol | -7.4 kcal/mol | -7.3 kcal/mol | 2.6 kcal/mol | 2.7 kcal/mol | 2.6 kcal/mol | 3910 nM | 3,48E-06 M | 4,33E-06 M | -2,89 kcal mol^-1 | -4,49 kcal mol^-1 | -7,38 kcal mol^-1 | -5,204 kcal mol^-1 | -7,446 kcal mol^-1 | -2,242 kcal mol^-1 | -3,779 kcal mol^-1 | -7,317 kcal mol^-1 | -3,539 kcal mol^-1 | 
4 | CCC[C@H](NC(=O)[C@H](N)CCCCN)C(=O)N[C@@H](Cc1ccc([N+](=O)[O-])cc1)C(=O)NC(Cc1cscn1)C(=O)N[C@@H](COP(=O)(O)O)C(=O)N[C@@H](Cc1ccc([N+](=O)[O-])cc1)C(=O)NC(CO)CC(=O)NCCC(=O)N[C@@H](Cc1ccc([N+](=O)[O-])cc1)C(=O)N[C@@H](CCCCN)C(N)=O (stereo partly drawn) [compound 1] (H-[dK][Nva][Phe(4-NO2)][ξAla(4-thiazolyl)][pS][Phe(4-NO2)][ξβ3hS][βAla][Phe(4-NO2)]K-NH2) | -10.0 kcal/mol | -10.0 kcal/mol | -10.0 kcal/mol |  |  |  |  |  |  | -10,71 kcal mol^-1 | 0,68 kcal mol^-1 | -10,03 kcal mol^-1 | 0,933 kcal mol^-1 | -10,03 kcal mol^-1 | -10,96 kcal mol^-1 | 0,426 kcal mol^-1 | -10,02 kcal mol^-1 | -10,45 kcal mol^-1 | free binding energy ΔG (ITC) (ITC): -10.0 kcal/mol; ΔH (ITC) (Table S1 (unit given in Fig. 4 legend), ITC, mean of n = 2): -10.7 kcal/mol; -TΔS (ITC) (Table S1, ITC, mean of n = 2): 0.7 kcal/mol; ΔG (ITC) (Table S1, ITC, mean of n = 2): -10.0 kcal/mol; -TΔS (ITC) (Table S1, ITC, replicate 1): 0.9 kcal/mol; KD (ITC) (Table S1, ITC, replicate 1): 44.7 nM; ΔG (ITC) (Table S1, ITC, replicate 1): -10.0 kcal/mol; ΔH (ITC) (Table S1, ITC, replicate 1): -11.0 kcal/mol; -TΔS (ITC) (Table S1, ITC, replicate 2): 0.4 kcal/mol; KD (ITC) (Table S1, ITC, replicate 2): 45.3 nM; ΔG (ITC) (Table S1, ITC, replicate 2): -10.0 kcal/mol; ΔH (ITC) (Table S1, ITC, replicate 2): -10.5 kcal/mol
